Results on 4 compounds are retold here after paper PMC6982718, “Comparative Study on Pharmacokinetics of Four Active Compounds in Rat Plasma after Oral Administration of Raw and Wine Processed Chuanxiong Rhizoma” (Molecules, 2019).

A short description of data set [1]: Pharmacokinetic study in rat plasma after oral administration of RCR and WCR oral liquid medicine. The class given is in vivo, Sprague-Dawley rats. The settings on record: n = 6, mean ± SD; for AUC(0-inf) / AUC(0-t) / Cmax / MRT / Tmax / half-life: male, Sprague-Dawley, rat, plasma, po, 24.01 g/kg. On the procedure:
RCR (300 g) and WCR (300 g) were weighed and soaked in water (6:1, v/w) for 20 min respectively, then refluxed for 30 min and extracted twice. Finally, the extracts of RCR and WCR were filtered, combined, and concentrated to 1.20 g/mL respectively. The concentrated extracts were stored in a refrigerator at 4 °C before use.
Male adult Sprague-Dawley rats (220–250 g) were obtained from the Laboratory Animal Center of Shanxi Medical University (Shanxi, China). The rats were fed in an air-conditioned animal center with a natural light-dark cycle for a week, the temperature was maintained at 22–26 °C and the relative humidity was maintained at 60 ± 10%. All procedures involving the animal were in accordance with the Regulations of Experimental Animal Administration issued by the State Committee of Science and Technology of People’s Republic of China. It is worth noting that all rats were fasted with free access to water for 12 h prior to the experiment.
The collected plasma samples (100 µL) spiked with IS (10 µL) and methanol (10 µL) were vortex-mixed for 5 min. Subsequently, methanol of 300 µL was added for protein precipitation. The mixtures were vortexed for 5 min and then centrifuged at 13,000 rpm for 20 min. Finally, the supernatant was transferred to another clean centrifuge tube and centrifuged again in the same manner. The supernatant of 5 µL was injected into the UHPLC-Q-Exactive-Orbitrap/MS system for analysis.
Twelve rats were randomly divided into two groups (n = 6 per group), an orally administered liquid medicine of RCR and WCR respectively at the same dose of 24.01 g/kg. The blood samples (0.3 mL) from the suborbital vein of each rat were collected in a 1.5 mL heparinized centrifuge tube before dosing and at 0.033, 0.083, 0.16, 0.25, 0.5, 1, 2, 4, 8, 11, 24, 48 h after administration. The blood samples were immediately centrifuged at 13,000 rpm for 10 min and the plasma separated out were transferred to clean centrifuge tubes and stored at −20 °C until analysis.
The pharmacokinetic parameters of the analytes were evaluated using Phoenix WinNonlin software (version 6.0, Pharsight Corporation, CA, USA). The mean plasma concentration-time curves were presented using Graphpad Prism (version 6.0, Graghpad Software, San Diego, CA, USA).

The format of data set [2] is in vitro ADME, rat. As to conditions: low QC (7.08/5.22/6.55/6.68 ng/mL), n = 6. Here is the method:
The quality control (QC) samples were prepared by the same procedure described above. Furthermore, low, medium, high concentrations of QC samples of each component were 7.08, 141.50, 1132 ng/mL for butylidenephthalide; 5.22, 104.40, 835.20 ng/mL for ligustilide; 6.55, 131, 1048 ng/mL for senkyunolide A and 6.68, 667.50, 10,680 ng/mL for ferulic acid, respectively.
The stability study of biological samples containing short-term, long-term, freeze-thaw and post-preparation stability could evaluate the influence of sample handling environment and sample storage environment on active component content. Six replicates of QC samples at three concentration levels were analyzed for all stability studies. Short-term stability was evaluated by keeping all QC samples at room temperature for 4 h before processing. Long-term stability was evaluated after all QC samples were stored at −20 °C for 60 days. Freeze-thaw stability of QC samples of each concentration was evaluated after three freeze (−20 °C)-thaw (room temperature) cycles. Post-preparation stability was to observe the stability of the extracted QC samples after waiting for 24 h in the autosampler at 4 °C. The concentration of each QC sample was calculated by the standard curve prepared freshly on the same day. The samples were considered stable when RSD of QC samples at three concentration levels was within ±15%.

In data set [1] (oral RCR 24.01 g/kg), `COc1cc(/C=C/C(=O)O)ccc1O` [Ferulic Acid, ferulic acid] yielded a total exposure AUC(0-inf) of 13400 ng·h/mL, an exposure AUC(0-t) of 13100 ng·h/mL, a Cmax of 47700 ng/mL and a mean residence time MRT of 3.21 ± 1.66 h. Further, in data set [1] (oral RCR 24.01 g/kg), the time of peak concentration (Tmax) was 0.12 ± 0.09 h, the Cl is 24.08 ± 14.39 mL/h, the Vd came out at 283.95 ± 234.10 mL and the t1/2 turned out to be 8.57 ± 4.42 h. For the same compound, in data set [1] (oral WCR 24.01 g/kg), the AUC(0-inf) is 4620 ± 1290 ng·h/mL, the area under the curve AUC(0-t) was 4460 ± 1240 ng·h/mL, the concentration peaked (Cmax) at 9530 ± 6500 ng/mL and the mean residence time (MRT) was 4.05 ± 1.07 h. In data set [1] (oral WCR 24.01 g/kg), the Tmax amounted to 0.06 ± 0.03 h, the Cl is 178.84 ± 54.46 mL/h, the Vd came out at 1519.30 ± 1321.97 mL and the t1/2 was 5.33 ± 2.97 h.
For `CCC/C=C1\OC(=O)C2=C1CCC=C2` [Ligustilide, ligustilide], in data set [1] (oral RCR 24.01 g/kg), the AUC(0-inf) turned out to be 4110 ± 285 ng·h/mL, the AUC(0-t) is 4080 ± 201 ng·h/mL, the concentration peaked (Cmax) at 289 ± 8.1 ng/mL and the mean residence time (MRT) turned out to be 13.5 ± 1.74 h. In data set [1] (oral RCR 24.01 g/kg), the time of peak concentration (Tmax) amounted to 0.22 ± 0.05 h, the half-life is 8.5 ± 1.41 h, the Cl came to 128.76 ± 19.21 mL/h and the Vd was 1579.29 ± 363.96 mL. For the same compound, in data set [1] (oral WCR 24.01 g/kg), the area under the curve AUC(0-inf) came to 4040 ± 1480 ng·h/mL, the AUC(0-t) was 3310 ± 579 ng·h/mL, the highest level (Cmax) was 192 ± 8.48 ng/mL and the MRT was found to be 21.9 ± 11.2 h. Moreover, in data set [1] (oral WCR 24.01 g/kg), the time of peak concentration (Tmax) stood at 0.3 ± 0.18 h, the half-life is 14.6 ± 7.56 h, the Cl was 568.93 ± 184.86 mL/h and the Vd is 10,580.62 ± 2206.75 mL.
Consider `CCCCC1OC(=O)C2=C1CCC=C2` (stereo not shown) [Senkyunolide A, senkyunolide A], for which, in data set [1] (oral RCR 24.01 g/kg), the area under the curve AUC(0-inf) was found to be 1840 ± 501 ng·h/mL, the AUC(0-t) is 1640 ± 438 ng·h/mL, the Cmax worked out at 653 ± 581 ng/mL and the mean residence time MRT came out at 18.8 ± 4.24 h. In data set [1] (oral RCR 24.01 g/kg), the Tmax was determined as 0.11 ± 0.09 h, the half-life is 13.4 ± 3.56 h, the Cl amounted to 392.87 ± 142.41 mL/h and the Vd was found to be 7378.16 ± 2565.01 mL. Further, in data set [1] (oral WCR 24.01 g/kg), the area under the curve AUC(0-inf) is 861 ± 267 ng·h/mL, the AUC(0-t) came out at 804 ± 279 ng·h/mL, the highest level (Cmax) was 151 ± 84.3 ng/mL and the mean residence time (MRT) was 9.86 ± 1.53 h. Besides, in data set [1] (oral WCR 24.01 g/kg), the Tmax is 0.18 ± 0.07 h, the half-life is 6.32 ± 1.72 h and the Vd was determined as 8275.68 ± 5216.70 mL.
As for `CCC/C=C1\OC(=O)c2ccccc21` [Butylidenephthalide, butylidenephthalide], the “Post-Preparative Stability RE” value in data set [2] (extracted rat plasma, 24 h in autosampler at 4 °C) turned out to be 6.90%. Besides, the “Bench-Top Stability RE” value in data set [2] (rat plasma, room temperature 4 h) was determined as 1.88%. Moreover, the “Freeze-Thaw Stability RE” value in data set [2] (rat plasma, three freeze (−20 °C)-thaw cycles) is listed as −10.99%. The “Long-Term Stability RE” value in data set [2] (rat plasma, −20 °C for 60 days) is listed as 4.03%. Moreover, in data set [1] (oral RCR 24.01 g/kg), the AUC(0-inf) was found to be 782 ± 252 ng·h/mL, the AUC(0-t) came to 743 ± 279 ng·h/mL, the Cmax is 288 ± 370 ng/mL and the mean residence time (MRT) amounted to 14.1 ± 6.54 h. For the same compound, in data set [1] (oral RCR 24.01 g/kg), the time of peak concentration (Tmax) is 0.25 ± 0.14 h, the half-life was 11.4 ± 5.88 h, the Cl worked out at 36.61 ± 16.33 mL/h and the Vd is 633.78 ± 424.90 mL. Further, in data set [1] (oral WCR 24.01 g/kg), the area under the curve AUC(0-inf) worked out at 402 ± 77.1 ng·h/mL, the area under the curve AUC(0-t) was 384 ± 90.9 ng·h/mL, the peak concentration (Cmax) worked out at 52.1 ± 16.6 ng/mL and the MRT is 13.9 ± 3.63 h. In data set [1] (oral WCR 24.01 g/kg), the Tmax came out at 0.27 ± 0.14 h, the half-life is 11 ± 3.75 h, the Cl is 234.35 ± 44.10 mL/h and the Vd came to 3802.37 ± 1676.69 mL.
